# Source: US6525001B1, “Substituted pyrimidine and pyridine herbicides” (Mid-American Commercialization Corporation, priority 1997, dated 2003)
# Columns and labels:
# Type in all cases: in vivo
# [1] = tested on: surinam grass (Brachiaria decumbens); experiment: Test C; design: key: 0 was no effect; 100 was complete control; details: PREEMERGENCE
# [2] = tested on: purple nutsedge (Cyperus rotundus); experiment: Test B pre-/postemergence; design: key: 0 is no effect; 10 is complete control
# Summary of the method: (§1)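 Scored visually 0 (none) to 10 (complete control) against untreated plants after twelve to sixteen greenhouse days. Test chemicals, formulated in surfactant-containing non-phytotoxic solvent, applied to soil after planting and, separately, onto 1- to 4-leaf (2–18 cm) plants.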
# [3] = tested on: giant foxtail (Setaria faberii); experiment: Test B pre-/postemergence; design: key: 0 is no effect; 10 is complete control
# Summary of the method: as §1
# [4] = tested on: ivyleaf morningglory (Ipomoea hederacea); experiment: Test C; design: key: 0 was no effect; 100 was complete control; details: PREEMERGENCE
# [5] = tested on: eastern black nightshade (Solanum ptycanthum); experiment: Test C; design: key: 0 was no effect; 100 was complete control; details: PREEMERGENCE
# corn (Zea mays) = experiment: Test C; design: key: 0 was no effect; 100 was complete control; details: PREEMERGENCE
# [6] = tested on: giant foxtail (Setaria faberii); experiment: Test C; design: key: 0 was no effect; 100 was complete control; details: PREEMERGENCE
# soybean (Glycine max) = experiment: Test C; design: key: 0 was no effect; 100 was complete control; details: PREEMERGENCE
# [7] = tested on: arrowleaf sida (Sida rhombifolia); experiment: Test C; design: key: 0 was no effect; 100 was complete control; details: PREEMERGENCE
# rice (Oryza sativa) = experiment: Test B flood test; design: key: 0 is no effect; 10 is complete control
# Summary of the method: (§2)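 Flood test on plants grown to the 2-leaf stage; treated plants kept in greenhouse twelve to sixteen days, then visually rated against controls on a 0 (no effect) to 10 (complete control) scale.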
# [8] = tested on: duck salad (Heteranthera limosa); experiment: Test B flood test; design: key: 0 is no effect; 10 is complete control
# Summary of the method: as §2
# [9] = tested on: smallflower flatsedge (Cyperus difformis); experiment: Test B flood test; design: key: 0 is no effect; 10 is complete control
# Summary of the method: as §2
# [10] = tested on: bamyardgrass (Echinochloa crus-galli); experiment: Test B flood test; design: key: 0 is no effect; 10 is complete control
# Summary of the method: as §2
# [11] = tested on: purple nutsedge (Cyperus rotundus); experiment: Test C; design: key: 0 was no effect; 100 was complete control; details: PREEMERGENCE
# [12] = tested on: redroot pigweed (Amaranthus retroflexus); experiment: Test C; design: key: 0 was no effect; 100 was complete control; details: PREEMERGENCE
# [13] = Preemergence, Rate 62 g/ha, scale of 0 to 10
# [14] = Rate 62 g/ha, Postemergence (flood test)
# [15] = Rate 125 g/ha, Postemergence section (flood test species)
# [16] = Rate 250 g/ha, Postemergence (flood test species)
# [17] = Rate 500 g/ha, Postemergence (flood test species)
# [18] = Rate 125 g/ha, Postemergence, flood test
compound,measurement,setting,value
Cc1cnc(-n2ccc(C(F)(F)F)n2)nc1C(=O)c1cccc(OC(F)(F)F)c1 [Compound 66],"Plant response rating, Surinam grass",[1]; Rate 35 g/ha,5
same,"Plant response rating, Surinam grass",[1]; Rate 70 g/ha,5
same,"Plant response rating, Surinam grass",[1]; Rate 140 g/ha,20
same,"Plant response rating, Nutsedge",[2]; [13],0
same,Nutsedge plant response rating,"[2]; Rate 62 g/ha, Postemergence",0
same,Nutsedge plant response rating,"[2]; Rate 125 g/ha, Postemergence",1
same,"Plant response rating, Nutsedge","[2]; Rate 250 g/ha, Postemergence",1
same,"Plant response rating, Nutsedge","[2]; Rate 500 g/ha, Postemergence",1
same,"Plant response rating, Nutsedge","[2]; Rate 500 g/ha, Preemergence",0
same,"Plant response rating, Giant foxtail",[3]; [13],0
same,Giant foxtail plant response rating,"[3]; Rate 62 g/ha, Postemergence",2
same,Giant foxtail plant response rating,"[3]; Rate 125 g/ha, Postemergence",2
same,"Plant response rating, Giant foxtail","[3]; Rate 125 g/ha, Preemergence",1
same,"Plant response rating, Giant foxtail","[3]; Rate 250 g/ha, Postemergence",2
same,"Plant response rating, Giant foxtail","[3]; Rate 250 g/ha, Preemergence",2
same,"Plant response rating, Giant foxtail","[3]; Rate 500 g/ha, Postemergence",4
same,"Plant response rating, Giant foxtail","[3]; Rate 500 g/ha, Preemergence",4
same,"Plant response rating, I. morningglory",[4]; Rate 35 g/ha,5
same,"Plant response rating, I. morningglory",[4]; Rate 70 g/ha,10
same,"Plant response rating, I. morningglory",[4]; Rate 140 g/ha,10
same,"Plant response rating, E. blacknightsh",[5]; Rate 35 g/ha,0
same,"Plant response rating, E. blacknightsh",[5]; Rate 70 g/ha,10
same,"Plant response rating, E. blacknightsh",[5]; Rate 140 g/ha,30
same,"Plant response rating, Corn",corn (Zea mays); Rate 35 g/ha,0
same,"Plant response rating, Corn",corn (Zea mays); Rate 70 g/ha,0
same,"Plant response rating, Corn",corn (Zea mays); Rate 140 g/ha,0
same,"Plant response rating, Giant foxtail",[6]; Rate 35 g/ha,0
same,"Plant response rating, Giant foxtail",[6]; Rate 70 g/ha,0
same,"Plant response rating, Giant foxtail",[6]; Rate 140 g/ha,0
same,"Plant response rating, Soybean",soybean (Glycine max); Rate 35 g/ha,0
same,"Plant response rating, Soybean",soybean (Glycine max); Rate 70 g/ha,0
same,"Plant response rating, Soybean",soybean (Glycine max); Rate 140 g/ha,0
same,"Plant response rating, Arrowleaf sida",[7]; Rate 35 g/ha,5
same,"Plant response rating, Arrowleaf sida",[7]; Rate 70 g/ha,5
same,"Plant response rating, Arrowleaf sida",[7]; Rate 140 g/ha,100
same,Rice plant response rating,rice (Oryza sativa); [14],0
same,Rice plant response rating,rice (Oryza sativa); [15],1
same,"Plant response rating, Rice",rice (Oryza sativa); [16],1
same,"Plant response rating, Rice",rice (Oryza sativa); [17],2
same,Ducksalad plant response rating,[8]; [14],2
same,Ducksalad plant response rating,[8]; [15],3
same,"Plant response rating, Ducksalad",[8]; [16],5
same,"Plant response rating, Ducksalad",[8]; [17],7
same,S. Flatsedge plant response rating,[9]; [14],6
same,S. Flatsedge plant response rating,[9]; [15],8
same,"Plant response rating, S. Flatsedge",[9]; [16],8
same,"Plant response rating, S. Flatsedge",[9]; [17],9
same,Barnyardgrass plant response rating,[10]; [14],3
same,Barnyardgrass plant response rating,[10]; [15],3
same,"Plant response rating, Barnyardgrass",[10]; [16],4
same,"Plant response rating, Barnyardgrass",[10]; [17],4
same,"Plant response rating, Purple nutsedge",[11]; Rate 35 g/ha,0
same,"Plant response rating, Purple nutsedge",[11]; Rate 70 g/ha,0
same,"Plant response rating, Purple nutsedge",[11]; Rate 140 g/ha,0
same,"Plant response rating, Redroot pigweed",[12]; Rate 35 g/ha,100
same,"Plant response rating, Redroot pigweed",[12]; Rate 70 g/ha,100
same,"Plant response rating, Redroot pigweed",[12]; Rate 140 g/ha,100
"Cc1cnc(-n2ccc(C(F)(F)F)n2)nc1Cc1cccc(C(F)(F)F)c1 [Example 2, 5-methyl-4-[[3-(trifluoromethyl)phenyl]methyl]-2-[3-(trifluoromethyl)-1H-pyrazol-1-yl]pyrimidine]","Plant response rating, Surinam grass",[1]; Rate 35 g/ha,0
same,"Plant response rating, Surinam grass",[1]; Rate 70 g/ha,10
same,"Plant response rating, Surinam grass",[1]; Rate 140 g/ha,35
same,"Plant response rating, Nutsedge","[2]; Rate 62 g/ha, Postemergence",0
same,Nutsedge plant response rating,"[2]; Rate 62 g/ha, Preemergence",0
same,"Plant response rating, Nutsedge","[2]; Rate 125 g/ha, Postemergence",0
same,Nutsedge plant response rating,"[2]; Rate 125 g/ha, Preemergence",0
same,"Plant response rating, Nutsedge","[2]; Rate 250 g/ha, Preemergence",0
same,"Plant response rating, Nutsedge","[2]; Rate 500 g/ha, Postemergence",2
same,"Plant response rating, Nutsedge","[2]; Rate 500 g/ha, Preemergence",0
same,"Plant response rating, Giant foxtail","[3]; Rate 62 g/ha, Postemergence",7
same,Giant foxtail plant response rating,"[3]; Rate 62 g/ha, Preemergence",10
same,"Plant response rating, Giant foxtail","[3]; Rate 125 g/ha, Postemergence",9
same,Giant foxtail plant response rating,"[3]; Rate 125 g/ha, Preemergence",10
same,"Plant response rating, Giant foxtail","[3]; Rate 250 g/ha, Postemergence",9
same,"Plant response rating, Giant foxtail","[3]; Rate 250 g/ha, Preemergence",10
same,"Plant response rating, Giant foxtail","[3]; Rate 500 g/ha, Postemergence",10
same,"Plant response rating, Giant foxtail","[3]; Rate 500 g/ha, Preemergence",10
same,"Plant response rating, I. morningglory",[4]; Rate 35 g/ha,0
same,"Plant response rating, I. morningglory",[4]; Rate 70 g/ha,5
same,"Plant response rating, I. morningglory",[4]; Rate 140 g/ha,5
same,"Plant response rating, E. blacknightsh",[5]; Rate 35 g/ha,5
same,"Plant response rating, E. blacknightsh",[5]; Rate 70 g/ha,5
same,"Plant response rating, E. blacknightsh",[5]; Rate 140 g/ha,90
same,"Plant response rating, Corn",corn (Zea mays); Rate 35 g/ha,0
same,"Plant response rating, Corn",corn (Zea mays); Rate 70 g/ha,0
same,"Plant response rating, Corn",corn (Zea mays); Rate 140 g/ha,30
same,"Plant response rating, Giant foxtail",[6]; Rate 35 g/ha,0
same,"Plant response rating, Giant foxtail",[6]; Rate 70 g/ha,5
same,"Plant response rating, Giant foxtail",[6]; Rate 140 g/ha,100
same,"Plant response rating, Soybean",soybean (Glycine max); Rate 35 g/ha,0
same,"Plant response rating, Soybean",soybean (Glycine max); Rate 70 g/ha,0
same,"Plant response rating, Soybean",soybean (Glycine max); Rate 140 g/ha,40
same,"Plant response rating, Arrowleaf sida",[7]; Rate 35 g/ha,10
same,"Plant response rating, Arrowleaf sida",[7]; Rate 70 g/ha,20
same,"Plant response rating, Arrowleaf sida",[7]; Rate 140 g/ha,100
same,"Plant response rating, Rice",rice (Oryza sativa); [14],3
same,"Plant response rating, Rice",rice (Oryza sativa); [18],4
same,"Plant response rating, Rice",rice (Oryza sativa); [16],5
same,"Plant response rating, Rice",rice (Oryza sativa); [17],6
same,"Plant response rating, Ducksalad",[8]; [14],0
same,"Plant response rating, Ducksalad",[8]; [18],0
same,"Plant response rating, Ducksalad",[8]; [16],2
same,"Plant response rating, Ducksalad",[8]; [17],2
same,"Plant response rating, S. Flatsedge",[9]; [14],3
same,"Plant response rating, S. Flatsedge",[9]; [18],5
same,"Plant response rating, S. Flatsedge",[9]; [16],8
same,"Plant response rating, S. Flatsedge",[9]; [17],9
same,"Plant response rating, Barnyardgrass",[10]; [14],3
same,"Plant response rating, Barnyardgrass",[10]; [18],4
same,"Plant response rating, Barnyardgrass",[10]; [16],5
same,"Plant response rating, Barnyardgrass",[10]; [17],6
same,"Plant response rating, Purple nutsedge",[11]; Rate 35 g/ha,0
same,"Plant response rating, Purple nutsedge",[11]; Rate 70 g/ha,0
same,"Plant response rating, Purple nutsedge",[11]; Rate 140 g/ha,0
same,"Plant response rating, Redroot pigweed",[12]; Rate 35 g/ha,5
same,"Plant response rating, Redroot pigweed",[12]; Rate 70 g/ha,5
same,"Plant response rating, Redroot pigweed",[12]; Rate 140 g/ha,100
